# Test results from PMC9763333, “In vitro characterization of immune modulating drug-eluting immunobeads towards transarterial embolization in cancer” (Scientific Reports, 2022).
# Several values for one entry are separate records, joined by “and”; a condition that tells them apart may be missing. Identical values can stand only once. Like-named read-outs stand apart in the source and are kept apart here.
# How the values were obtained:
# Type in all cases: physicochemical
# [1] = Drug solubilization by salt formation in acid; conditions: T in °C in parentheses in the cell (20.1 or 21.1)
# Description: The base form of each drug was suspended in deionized water and titrated with 0.1 N hydrochloric acid (Fisher Scientific, Hampton, NH) while stirring until all the base was solubilized and the volume adjusted to a final concentration of 2.5 mg/mL. The resulting solution was frozen, then lyophilized to yield solid drug-hydrochloride salt or used in its solubilized form for loading into DC Bead LUMI. […] Doxorubicin.HCl was readily solubilized and used without modification. […] A ZORBAX Eclipse Plus C8 reversed-phase column (Agilent) and UV detector at wavelength of 230 nm were used for GS-9620 analysis. The decomposition product of GS-9620 was analyzed with reversed phase high-performance liquid chromatography (Rp-HPLC) and LC/MS.
# [2] = Drug loading into DC Bead LUMI; conditions: for Relative percent drug loaded in DC Bead LUMI over time: listed as DSR; for Relative percent drug loaded (maximum, percent of SO3− available on a molar basis): mean (n = 3)
# Description: DC Bead LUMI was analyzed for its elemental composition by MEDAC Inc. […] Drug loading was performed in triplicate as previously reported[45] with slight modifications. […] Washing of beads is often a critical step in drug release studies as any drug left unbound to the beads affects the release profile and exaggerates the early burst release. […] However, washing was discontinued for TLR drugs as drug was continually observed even after multiple washes. […] The amount of drug loaded at the specified time points was calculated by subtracting the amount of drug remaining from the initial amount of drug in the loading solution and the cumulative amount of drug withdrawn for sampling. The maximum drug loaded in the beads was calculated once no further change in the concentration in the loading solution could be measured and before washing the beads. The relative percent drug loaded was defined as the maximum amount of drug loaded as a percent of the amount of SO3^- ions available in the beads on a molar basis using the following formula and the results are presented as the mean ± SD.
# [3] = pKa measurement by triple titration in methanol–water co-solvent with Yasuda-Shedlovsky extrapolation; conditions: for pKa: methanol–water co-solvent, aqueous value by Yasuda-Shedlovsky extrapolation; for psKa1 / psKa2 / psKa3: methanol–water
# Description: pKa measurements were performed by Pion Inc, UK Ltd using known methods as previously reported[47]–[50] or calculated by using software MoKa (Molecular Discovery, Borehamwood, Hertfordshire, UK, https://www.moldiscovery.com/software/moka/#references) or directly obtained from the literature. For GARD and DSR 6434, a triple titration was carried out under methanol–water co-solvent conditions from pH 2.0–12.0 at concentrations of 2.3–1.3 mM (the methanol mixing ratio varied from 49.0 to 28.9% w/w) and 1.5–0.9 mM (the methanol mixing ratio varied from 49.6 to 29.1% w/w), respectively.
# [4] = Washing of drug-loaded beads with deionized water and microscopic appearance
# Description: Drug loading was performed in triplicate as previously reported[45] with slight modifications. […] Washing of beads is often a critical step in drug release studies as any drug left unbound to the beads affects the release profile and exaggerates the early burst release. […] However, washing was discontinued for TLR drugs as drug was continually observed even after multiple washes. […] The amount of drug loaded at the specified time points was calculated by subtracting the amount of drug remaining from the initial amount of drug in the loading solution and the cumulative amount of drug withdrawn for sampling. The maximum drug loaded in the beads was calculated once no further change in the concentration in the loading solution could be measured and before washing the beads. The relative percent drug loaded was defined as the maximum amount of drug loaded as a percent of the amount of SO3^- ions available in the beads on a molar basis using the following formula and the results are presented as the mean ± SD.
# [5] = Drug release from DC Bead LUMI in saline; conditions: for release in saline from DC Bead LUMI after multiple washes in deionized water: single replicates, listed as DSR
# Description: […] Briefly, drug-loaded DC Bead LUMI or LC Bead (62.5 µL) were placed in vessels with 50 mL of saline ([…], pH 7.4) and were agitated with upright rocking motion at a set maximum rocking speed of 10 (70 rpm) for 144 h at 37 °C using Ward's® Rotating Mixer. At scheduled time intervals identical to the loading time points, 1 mL of release media was withdrawn and used for drug quantification. To maintain 50 mL total elution volume, 1 mL of fresh saline pre heated to 37 °C was replaced at each timepoint. […] 2.4. The cumulative amount of drug released at each time point was calculated by multiplying the concentration of each sample aliquot by the total volume (50 mL) of release media and adding the sum of the amount of drug removed for sampling at prior time points. […] The 50 mL volume was chosen to ensure infinite sink conditions where the maximum possible concentration of eluted drug would be at least 10 times more dilute than the maximum solubility. This ensures the rate of release is not affected by solution concentration but is only a function of interactions of the bead, drug, and saline.
smiles,measurement,setting,value
CCCCNc1nc(N)c2[nH]c(=O)n(Cc3ccc(OCCN(C)C)nc3)c2n1 [DSR 6434],pH at which each drug dissolved for loading,[1],1.65 (20.1)
same,Relative percent drug loaded in DC Bead LUMI over time,"[2]; 5 min, single replicates",39.5677% and 47.7348% and 48.9285%
same,Relative percent drug loaded in DC Bead LUMI over time,"[2]; 15 min, single replicates",41.6488% and 50.8205% and 51.9687%
same,Relative percent drug loaded in DC Bead LUMI over time,"[2]; 30 min, single replicates",42.6689% and 54.1338% and 55.2332%
same,Relative percent drug loaded in DC Bead LUMI over time,"[2]; 45 min, single replicates",48.2468% and 57.0357% and 58.0924%
same,Relative percent drug loaded in DC Bead LUMI over time,"[2]; 60 min, single replicates",49.3314% and 55.3694% and 56.4506%
same,Relative percent drug loaded in DC Bead LUMI over time,"[2]; 120 min, single replicates",50.4129% and 60.3547% and 61.3625%
same,Relative percent drug loaded in DC Bead LUMI over time,"[2]; 180 min, single replicates",49.4039% and 56.8373% and 57.8969%
same,Relative percent drug loaded in DC Bead LUMI over time,"[2]; 240 min, single replicates",49.4386% and 53.9704% and 55.0722%
same,Relative percent drug loaded in DC Bead LUMI over time,"[2]; 300 min, single replicates",48.7119% and 56.2576% and 57.3257%
same,Relative percent drug loaded in DC Bead LUMI over time,"[2]; 360 min, single replicates",47.0211% and 54.6141% and 55.7064%
same,Relative percent drug loaded in DC Bead LUMI over time,"[2]; 420 min, single replicates",47.0555% and 55.952% and 57.0246%
same,Relative percent drug loaded in DC Bead LUMI over time,"[2]; 480 min, single replicates",47.3643% and 55.2849% and 56.3673%
same,Relative percent drug loaded in DC Bead LUMI over time,"[2]; 1440 min, single replicates",46.9195% and 55.3847% and 56.4657%
same,Relative percent drug loaded in DC Bead LUMI over time,"[2]; 2880 min, single replicates",43.3022% and 55.4842% and 56.5637%
same,Relative percent drug loaded in DC Bead LUMI over time,"[2]; 4320 min, single replicates",46.6711% and 54.7234% and 55.8141%
same,Relative percent drug loaded in DC Bead LUMI over time,"[2]; 8640 min, single replicates",45.7549% and 53.8658% and 54.9692%
same,loading behaviour,[2]; DC Bead LUMI,Fast loading
same,"Relative percent drug loaded (maximum, percent of SO3− available on a molar basis)",[2]; DC Bead LUMI,57%
same,"Relative percent drug loaded (maximum, percent of SO3− available on a molar basis)","[2]; DC Bead LUMI, listed as DSR-6434",57.38%
same,equivalent of drug loaded to sulfonated bead,"[2]; DC Bead LUMI, mean ± SD",0.16 ± 0.02 mM drug/ml beads
same,Maximum drug loaded,"[2]; DC Bead LUMI, mean ± SD, n = 3, base form except Dox (salt form)",65.95 ± 6.96 mg drug/ml beads
same,"Maximum drug loaded (Triplicate), %","[2]; DC Bead LUMI, single replicates",50.4129% and 60.3547% and 61.3625%
same,Drug: sulfonate,"[2]; molar ratio at maximum loading, DC Bead LUMI",0.574
same,Theoretical maximum loading level based on SO3− contents,"[2]; per mL DC Bead LUMI, assuming 1:1 drug to sulfonate",114.94 mg
same,pKa,"[3]; read-out: pKa (first, measured)",4.58
same,pKa,"[3]; read-out: pKa (second, measured)",8.5
same,pKa,"[3]; read-out: pKa (third, measured)",9.94
same,psKa1,[3]; dielectric constant 56.6,4.18
same,psKa2,[3]; dielectric constant 56.6,8.14
same,psKa3,[3]; dielectric constant 56.6,10.7073
same,psKa1,[3]; dielectric constant 61.4,4.3
same,psKa2,[3]; dielectric constant 61.4,8.24
same,psKa3,[3]; dielectric constant 61.4,10.5143
same,psKa1,[3]; dielectric constant 65.9,4.39
same,psKa2,[3]; dielectric constant 65.9,8.34
same,psKa3,[3]; dielectric constant 65.9,10.3389
same,removal of drug from beads by repeated washing with deionized water,[4]; DC Bead LUMI,partially removed
same,aggregation of drug during washing / elution,"[4]; deionized water and saline, microscopy",absence of aggregated
same,release in saline from DC Bead LUMI after multiple washes in deionized water,[5]; 5 min,11.6669 mg/mL of beads and 21.0618 mg/mL of beads and 12.3038 mg/mL of beads
same,release in saline from DC Bead LUMI after multiple washes in deionized water,[5]; 15 min,12.2718 mg/mL of beads and 15.5382 mg/mL of beads and 12.6826 mg/mL of beads
same,release in saline from DC Bead LUMI after multiple washes in deionized water,[5]; 30 min,12.9372 mg/mL of beads and 16.3714 mg/mL of beads and 14.5502 mg/mL of beads
same,release in saline from DC Bead LUMI after multiple washes in deionized water,[5]; 45 min,13.4518 mg/mL of beads and 17.0028 mg/mL of beads and 14.9641 mg/mL of beads
same,release in saline from DC Bead LUMI after multiple washes in deionized water,[5]; 60 min,13.786 mg/mL of beads and 17.7202 mg/mL of beads and 15.5663 mg/mL of beads
same,release in saline from DC Bead LUMI after multiple washes in deionized water,[5]; 120 min,14.3607 mg/mL of beads and 18.3129 mg/mL of beads and 16.228 mg/mL of beads
same,release in saline from DC Bead LUMI after multiple washes in deionized water,[5]; 180 min,16.0563 mg/mL of beads and 19.309 mg/mL of beads and 16.8971 mg/mL of beads
same,release in saline from DC Bead LUMI after multiple washes in deionized water,[5]; 240 min,15.1532 mg/mL of beads and 19.1241 mg/mL of beads and 17.0694 mg/mL of beads
same,release in saline from DC Bead LUMI after multiple washes in deionized water,[5]; 300 min,15.5267 mg/mL of beads and 19.8574 mg/mL of beads and 17.3452 mg/mL of beads
same,release in saline from DC Bead LUMI after multiple washes in deionized water,[5]; 360 min,16.1146 mg/mL of beads and 19.776 mg/mL of beads and 18.2574 mg/mL of beads
same,release in saline from DC Bead LUMI after multiple washes in deionized water,[5]; 420 min,15.8596 mg/mL of beads and 19.8188 mg/mL of beads and 17.9345 mg/mL of beads
same,release in saline from DC Bead LUMI after multiple washes in deionized water,[5]; 480 min,16.4167 mg/mL of beads and 20.0149 mg/mL of beads and 17.9173 mg/mL of beads
same,release in saline from DC Bead LUMI after multiple washes in deionized water,[5]; 1440 min,16.847 mg/mL of beads and 20.6066 mg/mL of beads and 18.2918 mg/mL of beads
same,release in saline from DC Bead LUMI after multiple washes in deionized water,[5]; 2880 min,17.1212 mg/mL of beads and 20.6727 mg/mL of beads and 18.4291 mg/mL of beads
same,release in saline from DC Bead LUMI after multiple washes in deionized water,[5]; 4320 min,17.0504 mg/mL of beads and 20.4416 mg/mL of beads and 18.5897 mg/mL of beads
same,release in saline from DC Bead LUMI after multiple washes in deionized water,[5]; 8640 min,16.3092 mg/mL of beads and 19.4828 mg/mL of beads and 17.2615 mg/mL of beads
same,release behaviour in saline,[5]; DC Bead LUMI,rapid release
